Patent US8981149B2, “Compounds modulating the hedgehog protein signaling pathway, marked forms thereof, and applications” (Centre National De La Recherche Scientifique, priority 2011, dated 2015)
Like-named read-outs stand apart in the source and are kept apart here.

What was measured:
PCGs of rat cerebellum = test: Proliferation of granule cell precursors (PCGs) of rat cerebellum induced by SAG, 3H-thymidine incorporation; type: cell-based; settings: for IC50: proliferation induced by SAG (0.01 μM), 3H-thymidine incorporation, read-out: IC50 ± SEM, PCGs of rat cerebellum (3)
Method: The granule cell precursors (GCP) are isolated from cerebellums of rats (IFFA-CREDO, France), 8 days after birth (P8). The cerebellums are taken, cut into small pieces, placed in Krebs-Ringer buffer (120 mM NaCl, 5 mM KCl, 1 mM KH2PO4, 25 mM NaHCO3, 15 mM glucose, 0.04 mM phenol red) and incubated for 15 minutes at room temperature in a dissociation buffer composed of Krebs-Ringer with addition of 250 mg/ml of trypsin (Sigma, France). Enzymatic dissociation is stopped by adding an equal volume of Krebs-Ringer buffer containing 250 mg/ml of a trypsin inhibitor and 80 mg/ml of DNase (Sigma, France). The tissue is centrifuged at 100 g for 10 seconds and the pellet obtained is resuspended and triturated using Pasteur pipettes of decreasing diameter to obtain a suspension of isolated cells. This suspension is centrifuged at 200 g for 5 minutes and the pellet obtained is resuspended in Neurobasal medium supplemented with 1 mM of pyruvate, 2 mM L-glutamine, penicillin/streptomycin and 1% of supplement N2, 60 mg/ml N-acetyl cysteine and […] of bovine serum albumin (BSA, Sigma, France).
The cerebellar GCPs obtained are transferred to 96-well plates treated beforehand with poly-D-lysine at a density of 2.10^5 cells/well. SAG in the presence or absence of the other test compounds is added immediately. 12 hours before the end of culture, tritiated thymidine (^3H-thymidine) is added. The cells are aspirated and recovered on a glass fiber filter (GF/C) using an automated cell collector (Brandel, USA). The amount of radioactivity incorporated by the cells was quantified in the presence of a scintillating agent in a liquid scintillation counter (Wallac, USA).
The cerebellar PCGs proliferate in response to activation of the Shh signalling pathway, a response that can be inhibited by the Smo antagonists (Rohatgi et al., 2009, Proc. Natl. Acad. Sci. USA 106: 3196-201). We therefore analyzed the capacity of compound (7d) for inhibiting the proliferation of the PCGs of rat cerebellum in primary culture by measuring the incorporation of tritiated thymidine, a marker of DNA newly synthesized during the proliferation process.

C3H10T1/2 cells = test: Differentiation of C3H10T1/2 cells induced by SAG, alkaline phosphatase (AP) activity; type: cell-based, mouse; settings: Mus musculus, C3H 10T1/2
Method: The test compounds of formula (I) were dissolved in dimethylsulfoxide up to a concentration of 10 mM, then stored at a temperature of −20° C. until used.
The line of C3H10T1/2 pluripotent fibroblast cells (ATCC) was cultured in the conditions recommended by the ATCC. These cells were activated using 0.1 μM of SAG according to the methods described by Chen et al., Proc. Natl. Acad. Sci. USA, 2002, 99, 14071 and Frank-Kamenetsky et al., J. Biol., 2002, 1, 10.
Activation by SAG causes differentiation of the cell line and allows it to express alkaline phosphatase (AP). It was thus possible to measure the activity of the Hedgehog protein signalling pathway via measurement of the alkaline phosphatase (AP) activity.
The C3H10T1/2 cells were seeded on 96-well plates at a density of 5.10^3 cells per well, 24 hours before adding the test compounds at a concentration varying from 1 nM to 30 μM and in the presence of 0.1 μM of SAG, using DMEM (Dulbecco's Modified Eagle's Medium) with 10% fetal calf serum as culture medium. The tests were carried out in quadruplicate. The plates were then incubated for 5 to 6 days at a temperature of 37° C. under 5% CO2 atmosphere. The cells were then washed in cold phosphate buffer (“Phosphate Buffer Serum”: PBS), then lysed by sonication at 4° C. in 50 μL of a solution containing 0.9% of NaCl and 0.2% of Triton X-100.
Measurement of the alkaline phosphatase (AP) activity in the lysates thus obtained was then performed according to the method described by Pepinsky et al. (J. Biol. Chem., 1998, 273, 14037). After adding 100 μL of reaction buffer (200 mM Tris-HCl; pH 10.5; 0.4 M of 2-amino-2-methylpropanol and 8 mM of MgCl2) and 50 μL of substrate (4 mM of p-nitrophenyl disodium phosphate), the lysates were incubated at 37° C. for 30-60 min, then the optical density was read at a wavelength of 415 nm.

[1] = target: T1, human Smoothened receptor (Homo sapiens, UniProt Q99835); test: Saturation of binding of 3H-(7d) to membranes of HEK-hSmo cells; settings: read-out: Kd of specific binding
T1 construct: expressed in transfected cells
Method: The binding test is carried out on membranes enriched with Smoothened receptor. Cells of the HEK-hSmo line were used for preparing these membranes. The cells are washed and recovered in iced PBS. After centrifugation at 100 g for 7 minutes at 4° C., the pellet is taken up in 10 times its volume of an iced buffer A (50 mM HEPES, pH 7.4, 1 mM EDTA) with addition of 10 μl of a cocktail of protease inhibitors (PEAK, Sigma) per ml of buffer, then it is homogenized using a Polytron grinding mill. After centrifugation at 500 g for 30 minutes at 4° C., which makes it possible to remove the nuclei from the cells, the supernatant is centrifuged again at 48 000 g for 45 min at 4° C. The pellet is taken up in 2 ml of buffer A with PEAK added, then the suspension is homogenized using a glass conical grinding mill and is passed through a 23 G needle. Finally, aliquots are placed in Eppendorf tubes and stored at −80° C. The concentration of total protein in the preparation is determined by Lowry's method using BSA for preparing the standard range. This concentration is 10.9 mg/ml.
The membranes are resuspended in a buffer (50 mM HEPES and 3 mM MgCl2) containing 0.2% of BSA. The tests of binding of ^3H-(7d) are carried out in polypropylene tubes. […] The radioactivity retained on the filter is measured in the presence of 3 ml of scintillating agent in a liquid scintillation counter. […]

T1 sequence (Q99835 28-787): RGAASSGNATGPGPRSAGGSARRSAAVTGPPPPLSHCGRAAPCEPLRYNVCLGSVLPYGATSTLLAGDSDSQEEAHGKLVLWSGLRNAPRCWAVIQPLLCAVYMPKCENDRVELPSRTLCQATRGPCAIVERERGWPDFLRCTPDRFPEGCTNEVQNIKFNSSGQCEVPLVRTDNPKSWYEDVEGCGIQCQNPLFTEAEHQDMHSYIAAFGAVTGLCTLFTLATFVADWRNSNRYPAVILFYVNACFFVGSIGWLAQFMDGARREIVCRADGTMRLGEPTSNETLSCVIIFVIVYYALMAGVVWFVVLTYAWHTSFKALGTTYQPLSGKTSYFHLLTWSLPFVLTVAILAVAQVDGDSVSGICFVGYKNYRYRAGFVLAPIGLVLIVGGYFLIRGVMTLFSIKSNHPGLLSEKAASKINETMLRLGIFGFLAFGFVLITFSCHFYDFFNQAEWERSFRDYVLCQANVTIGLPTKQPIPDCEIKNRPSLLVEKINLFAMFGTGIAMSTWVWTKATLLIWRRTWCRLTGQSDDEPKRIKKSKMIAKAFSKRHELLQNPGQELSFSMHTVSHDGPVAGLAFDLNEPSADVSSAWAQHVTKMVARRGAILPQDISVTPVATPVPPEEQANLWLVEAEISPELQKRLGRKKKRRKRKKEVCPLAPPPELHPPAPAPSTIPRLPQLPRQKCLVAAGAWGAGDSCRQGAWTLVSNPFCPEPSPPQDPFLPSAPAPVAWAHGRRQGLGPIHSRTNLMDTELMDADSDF

IC50 (C3H10T1/2 cells; AP activity, differentiation induced by SAG (0.1 μM), read-out: IC50 ± SEM, C3H10T1/2 cells (2)): 6 ± 1 nM | IC50 (C3H10T1/2 cells; SAG 0.1 μM, Mean ± SEM, n ≧ 3, read-out: IC50, differentiation of C3H10T1/2 cells): 6 ± 1 nM | IC50 (C3H10T1/2 cells; after induction by SAG at 0.1 μM, read-out: IC50, inhibition of alkaline phosphatase (AP) activity, differentiation of C3H10T1/2 cells): 6 ± 1 nM | Kd [1]: 0.3 nM
SMILES: COc1cc(C(=O)NC(=N)Nc2ccc(C)c(NC(=O)c3ccc(CCc4ccccc4)cc3)c2)cc(OC)c1OC.Cl [Compound 7d, 3,4,5-trimethoxy-N—(N-(4-methyl-3-(4-phenethylbenzamido)phenyl)carbamimidoyl)benzamide hydrochloride]
IC50 (PCGs of rat cerebellum; Rattus norvegicus): 0.45 nM | Type of antagonism on proliferation of PCGs (PCGs of rat cerebellum; induced by SAG (0.01 μM)): complete antagonist | IC50 (PCGs of rat cerebellum; hydrochloride): 0.4 ± 0.1 nM
